We go through two compounds from patent US5852008A, “Heteroatom substituted benzoyl derivatives that enhance synaptic response mediated by receptors” (The Regents of the University of California, priority 1995, dated 1998).

Data set [1] has as its system hippocampal electroencephalogram. The data set is described as follows: Hippocampal electroencephalogram monitoring for electrographic seizures after i.p. injection. The format is in vivo, rat (male Sprague-Dawley). The following applies: i.p. 120-180 mg/kg.
Data set [2] concerns AMPA receptors. As to the kind of experiment: Field EPSP in rat hippocampal slices (field CA1): amplitude and area of AMPA receptor-mediated synaptic responses. The class given is cell-based, rat (Sprague-Dawley). How it is done:
The physiological effects of invention compounds can be tested in vitro with slices of rat hippocampus as follows. Excitatory responses (field EPSPs) are measured in hippocampal slices which are maintained in a recording chamber continuously perfused with artificial cerebrospinal fluid (ACSF).
To conduct these tests, the hippocampus was removed from anesthetized, 2 month old Sprague-Dawley rats and in vitro slices (400 micrometers thick) were prepared and maintained in an interface chamber at 35° C. using conventional techniques [see, for example, Dunwiddie and Lynch, J. Physiol. Vol. 276: 353-367 (1978)]. The chamber was constantly perfused at 0.5 ml/min with ACSF containing (in mM): NaCl 124, KCl 3, KH2 PO4 1.25, MgSO4 2.5, CaCl2 3.4, NaHCO3 26, glucose 10 and L-ascorbate 2. A bipolar nichrome stimulating electrode was positioned in the dendritic layer (stratum radiatum) of the hippocampal subfield CA1 close to the border of subfield CA3.
Current pulses (0.1 msec) through the stimulating electrode activate a population of the Schaffer-commissural (SC) fibers which arise from neurons in the subdivision CA3 and terminate in synapses on the dendrites of CA1 neurons. Activation of these synapses causes them to release the transmitter glutamate. Glutamate binds to the postsynaptic AMPA receptors which then transiently open an associated ion channel and permit a sodium current to enter the postsynaptic cell. This current results in a voltage in the extracellular space (the field excitatory postsynaptic potential or field "EPSP") which is recorded by a high impedance recording electrode positioned in the middle of the stratum radiatum of CA1.
For the experiments summarized in FIG. 1, the intensity of the stimulation current was adjusted to produce half-maximal EPSPs (typically about 1.5-2.0 mV). Paired stimulation pulses were given every 40 sec with an interpulse interval of 200 msec (see below). The field EPSPs of the second response were digitized and analyzed to determine amplitude, half-width, and response area. If the responses were stable for 15-30 minutes (baseline), test compounds were added to the perfusion lines for a period of about 15 minutes. The perfusion was then changed back to regular ACSF.
Paired-pulse stimulation was used since stimulation of the SC fibers, in part, activates interneurons which generate an inhibitory postsynaptic potential (IPSP) in the pyramidal cells of CA1. This feed forward IPSP typically sets in after the EPSP reaches its peak. It accelerates the repolarization and shortens the decay phase of the EPSP, and thus could partially mask the effects of the test compounds. One of the relevant features of the feed-forward IPSP is that it can not be reactivated for several hundred milliseconds following a stimulation pulse. This phenomenon can be employed to advantage to eliminate IPSP by delivering paired pulses separated by 200 milliseconds and using the second ("primed") response for data analysis.
These effects are mirrored in the field EPSP, as reported in the literature [see, for example, Staubli et al., Psychobiology supra; Xiao et al., Hippocampus supra; Staubli et al., Hippocampus Vol. 2: 49-58 (1992)].
The variables set forth in the table refer to the following generic structure: [drawing 33]

Data set [3] has as its system long-term potentiation in CA1 field of hippocampal slices. The data set is described as follows: Promotion of long-term potentiation (LTP) in CA1 field of hippocampal slices. The following applies: 1.5 mM, theta burst stimulation; vs absence of drug, p<0.02; FIG. 3. The class given is cell-based, rat. As to the method: Long-term potentiation (LTP; a stable increase in the EPSP size of single responses after brief periods of high frequency stimulation) was elicited in the CA1 field of hippocampal slices in the absence (see FIG. 3, stippled bars, N=6) and in the presence of 1.5 mM of Invention Compound I (see FIG. 3, striped bars, N=5). In the latter case, the amount of potentiation was determined after washing out the test compound and comparing the response size with that before test compound infusion. Data presented in FIG. 3 show the percent increase in the EPSP amplitude (mean and S.D.) at 40, 60, and 90 minutes after LTP induction.
For these studies, field EPSPs in slices of hippocampus were elicited by single stimulation pulses and recorded by extracellular electrodes as described in Example II. After collecting responses every 40 seconds for 20-30 minutes to establish a baseline, LTP was induced with ten short bursts of pulses delivered to the CA3 axons; each burst consisted of four pulses separated by 10 milliseconds; the interval between the bursts was 200 milliseconds. This pattern of axon stimulation mimics a discharge rhythm observed in the hippocampus of animals engaged in learning and is referred to as the "theta burst stimulation paradigm" [see, for example, Larson and Lynch in Science Vol. 232: 985-988 (1986)]. […]

Data set [4] has as its system AMPA receptor. The data set is described as follows: Monosynaptic EPSP responses in the hippocampus of anesthetized rats after intraperitoneal injection. Particulars: i.p. 120-180 mg/kg. The class given is in vivo, rat (male Sprague-Dawley). How it is done:
The time constant for the decay of the EPSP is a measure for the duration of the response.
In these experiments, male Sprague-Dawley rats were anesthetized with urethane (1.7 g/kg) and body temperature was maintained at 37° C. with the use of a heat lamp. A stimulation electrode (two twisted stainless steel wires, 150 μm diameter, insulated with teflon) was placed stereotaxically in the trajectory of the Schaffer collateral (SC) pathway from CA3 to CA1 of the hippocampus (coordinates relative to Bregma: 3.5 mm P., 3.5 mm L., and 3.0-3.7 mm V). A recording electrode (stainless steel, 150 μm diameter, insulated with teflon) was placed in the ipsilateral CA1 field (coordinates relative to Bregma: 3.8 mm P., 2.9 mm L., and 2.2-2.8 mm V.), 100-200 μm ventral to the electrophysiologically-identified CA1 stratum pyramidale (i.e., in the stratum radiatum).
Decay time constants were determined by single exponential fits to the decay phase of the synaptic response and expressed as a percent of the value obtained during the pre-injection control period.

The conditions of data set [5]: peripheral administration in humans; cited from earlier work.

Entries after “also recorded” stand apart in the source; their conditions may differ.

As to `O=C(c1ccc2c(c1)OCCO2)N1CC=CCC1` [Invention Compound I], the electrographic seizures result in data set [1] was “in no case did injections of Invention Compound I produce electrographic seizures”. The “increase in area of the field EPSP” value in data set [2] (100 μM, mean and S.D. of 4 experiments) is 46±16%. In addition, in data set [2] (750 μM), the “increase in response area relative to aniracetam” value is recorded as “nine”. Further, the “onset and reversibility of effect” value in data set [2] (750 μM, 15 min infusion, washout, FIG. 1) is “the effects occur quickly after infusion (horizontal bar) and reverse upon washout; also recorded: rapid onset of action and was fully reversible upon washout”. Moreover, the “effect on amplitude, duration (half-width) and area of synaptic response” value in data set [2] (750 μM, 15 min infusion, FIG. 1) is “increases the amplitude and duration (measured as half-width) of synaptic responses; also recorded: much larger effect than does aniracetam at twice the concentration; also recorded: the magnitude of the effects was much greater”. The EC50 (as a rule, the concentration needed to bring the measured effect to its halfway point) in data set [2] (percent increase in field EPSP amplitude, log dose/response, maximal response of 85% increase assumed where solubility was limiting, read-out: EC50 (field EPSP amplitude)) is 500 µM. For the same compound, the “degree of stable long-term potentiation” value in data set [3] is “increases the magnitude of long-term potentiation; also recorded: nearly twice as large; also recorded: facilitate induction of maximal long-term potentiation in vitro”. Further, the “time to reversal of the increased response duration” value in data set [4] was in the range of 60 to 120 min. In addition, the “effect on duration / decay of synaptic responses” value in data set [4] (anesthetized rats, FIG. 4) is “slows the decay rate of synaptic responses; also recorded: rapid increase in the duration of the synaptic response; also recorded: somewhat larger for the second (primed) response; also recorded: reversibly prolong synaptic responses in the hippocampus”. In addition, the blood-brain barrier passage entry in data set [4] (inferred from EPSP effect) was “sufficient amounts of the test compound cross the blood-brain barrier”.
As to `COc1ccc(C(=O)N2CCCC2=O)cc1` [aniracetam, N-anisoyl-2-pyrrolidinone], the “conversion to anisoyl-GABA” value in data set [5] is given as “about 80%”.
